Measured values from PubChem BioAssay AID1963841 (Molecular Pharmacology Branch, DTP, NCI, 2024).

Test system: 439559-082-T-J2-PDC spheroid viability
Test: Anticancer human tumor 439559-082-T-J2-PDC patient-derived colon adenocarcinoma cell line growth inhibition [POLQ]
Details: spheroids with HUVEC and MSC; for IC50: curve of first compound; for viability, T/C: stronger effect = lower value
Method in brief: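 Three-cell-type spheroids modelling solid tumor plus stroma served as the readout system; POL inhibitors were tested individually and in combination, concentration ranges set by clinical Cmax where known.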

[1] = second compound 0.0316 µM, first compound 0.0316 µM
[2] = second compound 0.0316 µM, first compound 0.1 µM
[3] = second compound 0.0316 µM, first compound 0.316 µM
[4] = second compound 0.0316 µM, first compound 1 µM
[5] = second compound 0.1 µM, first compound 0.0316 µM
[6] = second compound 0.1 µM, first compound 0.1 µM
[7] = second compound 0.1 µM, first compound 0.316 µM
[8] = second compound 0.1 µM, first compound 1 µM
[9] = second compound 0.316 µM, first compound 0.0316 µM
[10] = second compound 0.316 µM, first compound 0.1 µM
[11] = second compound 0.316 µM, first compound 0.316 µM
[12] = second compound 0.316 µM, first compound 1 µM
[13] = second compound 1 µM, first compound 0.0316 µM
[14] = second compound 1 µM, first compound 0.1 µM
[15] = second compound 1 µM, first compound 0.316 µM
[16] = second compound 1 µM, first compound 1 µM
[17] = second compound 3.16 µM, first compound 0.0316 µM
[18] = second compound 3.16 µM, first compound 0.1 µM
[19] = second compound 3.16 µM, first compound 0.316 µM
[20] = second compound 3.16 µM, first compound 1 µM
[21] = second compound 10 µM, first compound 0.0316 µM
[22] = second compound 10 µM, first compound 0.1 µM
[23] = second compound 10 µM, first compound 0.316 µM
[24] = second compound 10 µM, first compound 1 µM
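Also: spheroids exposed to compounds for seven days before readout.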
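For viability, T/C in this document: 100% = DMSO vehicle control viability.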

C=CCn1c(=O)c2cnc(Nc3ccc(N4CCN(C)CC4)cc3)nc2n1-c1cccc(C(C)(C)O)n1 + Nc1ccc(C#CCN(C(=O)Cc2ncc(C(F)(F)F)cc2C(F)(F)F)c2ccc(F)cc2)nn1
IC50 (second compound 0.0316 µM): > 1 µM | IC50 (second compound 0.1 µM): > 1 µM | IC50 (second compound 0.316 µM): > 1 µM | IC50 (second compound 1 µM): > 1 µM | IC50 (second compound 3.16 µM): > 1 µM | IC50 (second compound 10 µM): > 1 µM | viability, T/C (second compound 0.0316 µM, first compound 0.00316 µM): 111% | viability, T/C (second compound 0.0316 µM, first compound 0.01 µM): 109% | viability, T/C [1]: 109% | viability, T/C [2]: 105% | viability, T/C [3]: 97.5% | viability, T/C [4]: 84.7% | viability, T/C (second compound 0.1 µM, first compound 0.00316 µM): 108% | viability, T/C (second compound 0.1 µM, first compound 0.01 µM): 94.4% | viability, T/C [5]: 100% | viability, T/C [6]: 95.5% | viability, T/C [7]: 97.9% | viability, T/C [8]: 78.6% | viability, T/C (second compound 0.316 µM, first compound 0.00316 µM): 108% | viability, T/C (second compound 0.316 µM, first compound 0.01 µM): 115% | viability, T/C [9]: 97.3% | viability, T/C [10]: 99.1% | viability, T/C [11]: 97.5% | viability, T/C [12]: 84% | viability, T/C (second compound 1 µM, first compound 0.00316 µM): 105% | viability, T/C (second compound 1 µM, first compound 0.01 µM): 102% | viability, T/C [13]: 98.4% | viability, T/C [14]: 101% | viability, T/C [15]: 103% | viability, T/C [16]: 78.7% | viability, T/C (second compound 3.16 µM, first compound 0.00316 µM): 99.6% | viability, T/C (second compound 3.16 µM, first compound 0.01 µM): 107% | viability, T/C [17]: 98.8% | viability, T/C [18]: 99.4% | viability, T/C [19]: 89.5% | viability, T/C [20]: 79.3% | viability, T/C (second compound 10 µM, first compound 0.00316 µM): 105% | viability, T/C (second compound 10 µM, first compound 0.01 µM): 109% | viability, T/C [21]: 103% | viability, T/C [22]: 105% | viability, T/C [23]: 99.9% | viability, T/C [24]: 71.2%

CC1COCCN1c1cc(C2(S(C)(=N)=O)CC2)nc(-c2ccnc3[nH]ccc23)n1 (centres undefined) + Nc1ccc(C#CCN(C(=O)Cc2ncc(C(F)(F)F)cc2C(F)(F)F)c2ccc(F)cc2)nn1
IC50 (second compound 0.0316 µM): > 10 µM | IC50 (second compound 0.1 µM): > 10 µM | IC50 (second compound 0.316 µM): > 10 µM | IC50 (second compound 1 µM): > 10 µM | IC50 (second compound 3.16 µM): > 10 µM | IC50 (second compound 10 µM): > 10 µM | viability, T/C [1]: 98.7% | viability, T/C [2]: 98.4% | viability, T/C [3]: 88.9% | viability, T/C [4]: 95.8% | viability, T/C (second compound 0.0316 µM, first compound 3.16 µM): 89% | viability, T/C (second compound 0.0316 µM, first compound 10 µM): 74.7% | viability, T/C [5]: 99.4% | viability, T/C [6]: 91% | viability, T/C [7]: 96.7% | viability, T/C [8]: 79.6% | viability, T/C (second compound 0.1 µM, first compound 3.16 µM): 84.1% | viability, T/C (second compound 0.1 µM, first compound 10 µM): 71.5% | viability, T/C [9]: 94.5% | viability, T/C [10]: 115% | viability, T/C [11]: 96.3% | viability, T/C [12]: 90.8% | viability, T/C (second compound 0.316 µM, first compound 3.16 µM): 77% | viability, T/C (second compound 0.316 µM, first compound 10 µM): 70.5% | viability, T/C [13]: 98.3% | viability, T/C [14]: 105% | viability, T/C [15]: 98% | viability, T/C [16]: 96.4% | viability, T/C (second compound 1 µM, first compound 3.16 µM): 74.8% | viability, T/C (second compound 1 µM, first compound 10 µM): 65.3% | viability, T/C [17]: 94.1% | viability, T/C [18]: 98.9% | viability, T/C [19]: 95.3% | viability, T/C [20]: 76% | viability, T/C (second compound 3.16 µM, first compound 3.16 µM): 83.7% | viability, T/C (second compound 3.16 µM, first compound 10 µM): 67.5% | viability, T/C [21]: 99.3% | viability, T/C [22]: 101% | viability, T/C [23]: 86.8% | viability, T/C [24]: 94.7% | viability, T/C (second compound 10 µM, first compound 3.16 µM): 84.9% | viability, T/C (second compound 10 µM, first compound 10 µM): 72%
